Measurements from US9815802B2, “Herbicidally active N-(1-methyltetrazol-5-yl)benzoic acid amides” (BAYER CROPSCIENCE AKTIENGESELLSCHAFT, priority 2014, dated 2017).

What was measured:
Format in all cases: in vivo
[1] = system: Stellaria media; assay: Pre-emergence herbicidal action against STEME; conditions: dosage 320 g/ha
Description: (§1) Pre-Emergence Herbicidal Action Against Harmful Plants
(§2) Seeds of monocotyledonous and dicotyledonous weed plants and crop plants are laid out in wood-fiber pots in sandy loam and covered with soil. The compounds of the invention, formulated in the form of wettable powders (WP) or as emulsion concentrates (EC), are then applied to the surface of the covering soil in the form of an aqueous suspension or emulsion at a water application rate equating to 600 to 800 I/ha, with addition of 0.2% wetting agent. After the treatment, the pots are placed in a greenhouse and kept under good growth conditions for the trial plants. The damage to the test plants is scored visually after a test period of 3 weeks by comparison with untreated controls (herbicidal activity in percent (%): 100% activity=the plants have died, 0% activity=like control plants). For example, compounds no. 1-001, 1-002, 1-003, 1-004, 1-011, 1-012, 1-021, 1-022, 1-031, 1-032, 1-041, 1-042 and 1-044 at an application rate of 320 g/ha each have at least 80% efficacy against Echinocloa crusgalli, Abutilon theophrasti, Amaranthus retroflexus and Matricaria inodora.

[2] = system: Setaria viridis; assay: Pre-emergence herbicidal action against SETVI; conditions: dosage 320 g/ha
Description: as §1, §2

[3] = system: Pharbitis purpureum; assay: Pre-emergence herbicidal action against PHBPU; conditions: dosage 320 g/ha
Description: as §1, §2

[4] = system: Avena fatua; assay: Pre-emergence herbicidal action against AVEFA; conditions: dosage 320 g/ha
Description: as §1, §2

[5] = system: Polygonum convolvulus; assay: Pre-emergence herbicidal action against POLCO; conditions: dosage 320 g/ha
Description: as §1, §2

[6] = system: Abutilon theophrasti; assay: Post-emergence herbicidal action against ABUTH; conditions: dosage 80 g/ha
Description: (§3) Post-Emergence Herbicidal Action Against Harmful Plants Seeds of monocotyledonous and dicotyledonous weed and crop plants are laid out in sandy loam in wood-fiber pots, covered with soil and cultivated in a greenhouse under good growth conditions. 2 to 3 weeks after sowing, the test plants are treated at the one-leaf stage. The compounds of the invention, formulated in the form of wettable powders (WP) or as emulsion concentrates (EC), are then sprayed onto the green parts of the plants in the form of an aqueous suspension or emulsion at a water application rate equating to 600 to 800 I/ha, with addition of 0.2% wetting agent. After the test plants have been left to stand in the greenhouse under optimal growth conditions for about 3 weeks, the action of the preparations is assessed visually in comparison to untreated controls (herbicidal action in percent (%): 100% activity=the plants have died, 0% activity=like control plants).

[7] = system: Setaria viridis; assay: Post-emergence herbicidal action against SETVI
Description: as §3

[8] = system: Echinochloa crus galli; assay: Post-emergence herbicidal action against ECHCG; conditions: dosage 80 g/ha
Description: as §3

[9] = system: Alopecurus myosuroides; assay: Post-emergence herbicidal action against ALOMY
Description: as §3

[10] = system: Avena fatua; assay: Post-emergence herbicidal action against AVEFA
Description: as §3

[11] = system: Stellaria media; assay: Post-emergence herbicidal action against STEME; conditions: dosage 5 g/ha
Description: as §3

[12] = system: Polygonum convolvulus; assay: Post-emergence herbicidal action against POLCO
Description: as §3

CCOSc1c(C)ccc(C(=O)Nc2nnnn2C)c1[N+](=O)[O-] [4-799]
Activity against STEME [1]: 70%
Activity against SETVI [2]: 0%

COc1c(C(=O)Nc2nnnn2C)ccc(C)c1S(C)(=O)=O [4-811]
Activity against PHBPU [3]: 70%
Activity against AVEFA [4]: 60%

CCOSc1c(CC)ccc(C(=O)Nc2nnnn2C)c1CC [drawing 36]
Activity against PHBPU [3]: 100%
Activity against POLCO [5]: 100%

CCc1c(C(=O)Nc2nnnn2C)ccc(Cl)c1S(=O)(=O)CC [drawing 37, reference compound]
Activity against PHBPU [3]: 80%
Activity against POLCO [5]: 60%

COSc1c(C)ccc(C(=O)Nc2nnnn2C)c1C [drawing 38]
Activity against ABUTH [6]: 100%
Activity against SETVI ([7]; dosage 80 g/ha): 100%
Activity against ECHCG [8]: 100%

COSc1c(C)ccc(C(=O)Nc2nnnn2C)c1C [drawing 39, reference compound]
Activity against ABUTH [6]: 80%
Activity against SETVI ([7]; dosage 80 g/ha): 20%
Activity against ECHCG [8]: 40%

CCOSc1c(C)ccc(C(=O)Nc2nnnn2C)c1[N+](=O)[O-] [drawing 43, reference compound]
Activity against ALOMY ([9]; dosage 80 g/ha): 10%
Activity against AVEFA ([10]; dosage 80 g/ha): 0%

CCS(=O)(=O)c1c(C)ccc(C(=O)Nc2nnnn2C)c1C [drawing 45]
Activity against ALOMY ([9]; dosage 80 g/ha): 90%
Activity against AVEFA ([10]; dosage 80 g/ha): 80%

CCS(=O)(=O)c1c(C)ccc(C(=O)Nc2nnnn2C)c1C [drawing 46, reference compound]
Activity against ALOMY ([9]; dosage 80 g/ha): 40%
Activity against AVEFA ([10]; dosage 80 g/ha): 20%

COSc1c(S(C)(=O)=O)ccc(C(=O)Nc2nnnn2C)c1C [drawing 50, reference compound]
Activity against STEME [11]: 80%
Activity against SETVI ([7]; dosage 5 g/ha): 40%

CCc1ccc(C(=O)Nc2nnnn2C)c(C)c1S(C)(=O)=O [drawing 51]
Activity against ALOMY ([9]; dosage 5 g/ha): 60%
Activity against AVEFA ([10]; dosage 5 g/ha): 80%

Cc1c(C(=O)Nc2nnnn2C)ccc(S(C)(=O)=O)c1S(C)(=O)=O [drawing 52, reference compound]
Activity against ALOMY ([9]; dosage 5 g/ha): 30%
Activity against AVEFA ([10]; dosage 5 g/ha): 10%

COSc1c(S(C)(=O)=O)ccc(C(=O)Nc2nnnn2C)c1C [drawing 55, reference compound]
Activity against ALOMY ([9]; dosage 5 g/ha): 0%
Activity against AVEFA ([10]; dosage 5 g/ha): 0%

Cc1c(C(=O)Nc2nnnn2C)ccc(S(C)(=O)=O)c1S(C)(=O)=O [drawing 60]
Activity against ALOMY ([9]; Table S, dosage 5 g/ha): 30%
Activity against AVEFA ([10]; Table S, dosage 5 g/ha): 10%

CCc1c(C(=O)Nc2nnnn2C)ccc(C)c1SOC [drawing 61]
Activity against SETVI ([7]; Table T, dosage 80 g/ha): 80%
Activity against ECHCG ([8]; Table T): 90%

COSc1c(C)ccc(C(=O)Nc2nnnn2C)c1C [drawing 62]
Activity against SETVI ([7]; Table T, dosage 80 g/ha): 20%
Activity against ECHCG ([8]; Table T): 40%

COSc1c(C)ccc(C(=O)Nc2nnnn2C)c1[N+](=O)[O-] [drawing 63]
Activity against SETVI ([7]; Table T, dosage 80 g/ha): 0%
Activity against ECHCG ([8]; Table T): 20%

Cc1ccc(C(=O)Nc2nnnn2C)c([N+](=O)[O-])c1S(C)(=O)=O [drawing 66]
Activity against SETVI ([7]; Table U, dosage 80 g/ha): 0%
Activity against ECHCG ([8]; Table U): 0%

CCc1c(C(=O)Nc2nnnn2C)ccc(C)c1SOC [drawing 67]
Activity against POLCO ([12]; Table V, dosage 5 g/ha): 60%

CCc1c(C(=O)Nc2nnnn2C)ccc(Br)c1SOC [drawing 69]
Activity against POLCO ([12]; Table V, dosage 5 g/ha): 20%

CCc1c(C(=O)Nc2nnnn2C)ccc(C)c1S(C)(=O)=O [drawing 70]
Activity against POLCO ([12]; Table W, dosage 20 g/ha): 70%

CCc1c(C(=O)Nc2nnnn2C)ccc(Cl)c1S(C)(=O)=O [drawing 71]
Activity against POLCO ([12]; Table W, dosage 20 g/ha): 50%

CCOSc1c(CC)ccc(C(=O)Nc2nnnn2C)c1CC [drawing 73]
Activity against POLCO ([12]; Table X, dosage 20 g/ha): 60%

CCc1c(C(=O)Nc2nnnn2C)ccc(Cl)c1S(=O)(=O)CC [drawing 76]
Activity against POLCO ([12]; Table Y, dosage 20 g/ha): 70%

CCOSc1c(OC)ccc(C(=O)Nc2nnnn2C)c1C [reference compound]
Activity against ALOMY ([9]; dosage 80 g/ha): 40%
Activity against AVEFA ([10]; dosage 80 g/ha): 20%

CCS(=O)(=O)c1c(C)ccc(C(=O)Nc2nnnn2C)c1[N+](=O)[O-] [reference compound]
Activity against ALOMY ([9]; dosage 80 g/ha): 10%
Activity against AVEFA ([10]; dosage 80 g/ha): 0%

COSc1c(C(F)(F)F)ccc(C(=O)Nc2nnnn2C)c1C [reference compound]
Activity against STEME [11]: 80%
Activity against SETVI ([7]; dosage 5 g/ha): 80%

Cc1c(C(=O)Nc2nnnn2C)ccc(Cl)c1S(C)(=O)=O [reference compound]
Activity against ALOMY ([9]; dosage 5 g/ha): 20%
Activity against AVEFA ([10]; dosage 5 g/ha): 20%

COSc1cccc(C(=O)Nc2nnnn2C)c1C [reference compound]
Activity against ALOMY ([9]; dosage 5 g/ha): 10%
Activity against AVEFA ([10]; dosage 5 g/ha): 20%
